Reference: patent US20210085688A1, “PHARMACEUTICAL COMBINATIONS OF EGFR INHIBITORS AND METHODS OF USE THEREOF” (DANA-FARBER CANCER INSTITUTE, INC., priority 2018, published 2021)
Like-named read-outs stand apart in the source and are kept apart here.

Molecular target: EGFR T790M/L858R Ba/F3 cell line (Homo sapiens, UniProt P00533, T790M/L858R, cells depend on it)
Assay: Ba/F3 cell proliferation (MTS assay), EGFR T790M/L858R
Assay type: cell-based, murine
Description: The EGFR mutant L858R, Del E746_A750, L858R/T790M, DelE746_A750/T790M, L858R/T790M/C797S and Del/T790M/C797S Ba/F3 cells were previously described (Zhou et al., Nature 462, (2009), 1070-1074). All cell lines were maintained in RPMI 1640 (Cellgro; Mediatech Inc., Herndon, Calif.) supplemented with 10% FBS 100 units/mL penicillin, 100 units/mL streptomycin, and 2 mM glutamine. L858R cells were maintained in ACL-4 media (Invitrogen, Carlsbad, Calif.) supplemented with 5% FBS, 100 units/mL penicillin, 100 units/mL streptomycin, and 2 mM glutamine. The EGFR I941R mutation was introduced via site directed mutagenesis using the Quick Change Site-Directed Mutagenesis kit (Stratagene; La Jolla, Calif.) according to the manufacturer's instructions. All constructs were confirmed by DNA sequencing. The constructs were shuttled into the retroviral vector JP1540 using the BD Creator™ System (BD Biosciences). Ba/F3 cells were infected with retrovirus and according to standard protocols, as described previously (Zhou 2009). Stable clones were obtained by selection in puromycin (2 μg/ml).
Growth and inhibition of growth was assessed by MTS assay and was performed according to previously established methods (Zhou 2009). The MTS assay is a colorimetric method for determining the number of viable cells that is based on the bioreduction of MTS by cells to a formazan product that is soluble in cell culture medium and can be detected spectrophotometrically. […] All experimental points were set up in six wells and all experiments were repeated at least three times. […] The curves were fitted using a non-linear regression model with a sigmoidal dose response.

[1] = absence of cetuximab, read-out: Ba/F3 cellular activity (EC50) T790M/L858R
[2] = read-out: Ba/F3 cellular activity (EC50) T790M/L858R + Cetuximab, presence of 1 μg/mL cetuximab

Sequence of EGFR T790M/L858R Ba/F3 cell line (P00533 whole entry T790M/L858R): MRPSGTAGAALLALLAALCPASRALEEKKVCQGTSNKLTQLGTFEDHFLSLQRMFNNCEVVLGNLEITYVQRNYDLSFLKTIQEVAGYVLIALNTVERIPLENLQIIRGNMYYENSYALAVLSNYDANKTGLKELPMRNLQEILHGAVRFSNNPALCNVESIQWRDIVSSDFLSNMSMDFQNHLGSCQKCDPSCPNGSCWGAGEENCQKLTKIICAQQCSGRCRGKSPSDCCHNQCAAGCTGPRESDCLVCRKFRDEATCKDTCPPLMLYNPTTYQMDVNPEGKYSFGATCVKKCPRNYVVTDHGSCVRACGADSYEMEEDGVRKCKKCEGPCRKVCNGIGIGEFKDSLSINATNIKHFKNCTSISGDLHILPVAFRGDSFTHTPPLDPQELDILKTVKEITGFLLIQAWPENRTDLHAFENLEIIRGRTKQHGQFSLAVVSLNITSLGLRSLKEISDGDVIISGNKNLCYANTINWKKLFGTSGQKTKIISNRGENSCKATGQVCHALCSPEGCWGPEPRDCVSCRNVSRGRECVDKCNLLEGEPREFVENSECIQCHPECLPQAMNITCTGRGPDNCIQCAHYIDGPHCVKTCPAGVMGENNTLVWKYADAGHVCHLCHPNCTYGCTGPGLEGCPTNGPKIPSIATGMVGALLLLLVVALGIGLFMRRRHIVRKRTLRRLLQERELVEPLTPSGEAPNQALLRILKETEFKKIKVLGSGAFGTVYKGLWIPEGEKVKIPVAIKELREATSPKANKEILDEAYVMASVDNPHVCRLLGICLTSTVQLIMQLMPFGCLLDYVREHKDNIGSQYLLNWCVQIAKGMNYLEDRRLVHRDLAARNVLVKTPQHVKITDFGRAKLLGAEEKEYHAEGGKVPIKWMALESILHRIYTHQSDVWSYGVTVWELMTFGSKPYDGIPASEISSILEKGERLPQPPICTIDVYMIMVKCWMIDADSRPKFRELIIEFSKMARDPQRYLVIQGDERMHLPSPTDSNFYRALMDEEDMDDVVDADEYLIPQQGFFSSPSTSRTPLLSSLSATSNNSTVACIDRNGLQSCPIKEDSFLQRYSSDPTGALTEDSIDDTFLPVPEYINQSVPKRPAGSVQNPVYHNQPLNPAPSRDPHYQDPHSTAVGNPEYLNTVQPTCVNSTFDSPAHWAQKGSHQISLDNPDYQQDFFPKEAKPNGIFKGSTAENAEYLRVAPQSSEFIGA

EC50 [1] [nM] | EC50 [2] [nM] | Structure (SMILES)
≥ 750 | 500 to 750 | C=CC(=O)Nc1ccc2c(c1)N(Cc1ccccc1)C(=O)c1cc(-c3ccc4[nH]ccc4c3)ccc1N2 [Compound I-1]
< 250 | < 250 | O=C(CCl)Nc1ccc2c(c1)N(Cc1ccccc1)C(=O)c1cc(-c3ccc4[nH]ccc4c3)ccc1N2 [Compound I-2]
≥ 750 | ≥ 750 | C=CC(=O)Nc1ccc2c(c1)N(Cc1ccccc1)C(=O)c1cc(-c3ccc(N4CCNCC4)cc3)ccc1N2 [Compound I-3, N-(10-Benzyl-11-oxo-2-(4-(piperazin-1-yl)phenyl)-10,11-dihydro-5H-dibenzo[b,e][1,4]diazepin-8-yl)acrylamide]
≥ 750 | 250 to 500 | O=C1c2cc(Br)ccc2Nc2ccc(F)cc2N1Cc1ccccc1 [I-a, 10-Benzyl-2-bromo-8-fluoro-5,10-dihydro-11H-dibenzo[b,e][1,4]diazepin-11-one]
